Article PMC3983352 (Journal of Medicinal Chemistry, 2014)

Experiments:
[1] = molecular target: wild-type HDAC1 (Homo sapiens, UniProt Q13547); test: Acetate inhibition assay; type: biochemical; conditions: at least three independent trials, standard error
[2] = molecular target: HDAC1 Y24A (Homo sapiens, UniProt Q13547, Y24A); test: Acetate inhibition assay; type: biochemical
[3] = test system: recombinant HDAC8 wild type; conditions: acetate inhibition; cited from earlier work
[4] = molecular target: HDAC1 R34A (Homo sapiens, UniProt Q13547, R34A); test: Acetate inhibition assay; type: biochemical
[5] = molecular target: HDAC1 R36A (Homo sapiens, UniProt Q13547, R36A); test: Acetate inhibition assay; type: biochemical
[6] = molecular target: HDAC1 Y23A (Homo sapiens, UniProt Q13547, Y23A); test: Acetate inhibition assay; type: biochemical
[7] = test system: HDAC8 R37A; conditions: HDAC8 R37A vs HDAC8 wild type; cited from earlier work
[8] = molecular target: HDAC1 F205Y (Homo sapiens, UniProt Q13547, F205Y); test: Acetate inhibition assay; type: biochemical
[9] = molecular target: HDAC1 C151A (Homo sapiens, UniProt Q13547, C151A); test: Acetate inhibition assay; type: biochemical
Sequence of HDAC1 C151A (Q13547 whole entry C151A): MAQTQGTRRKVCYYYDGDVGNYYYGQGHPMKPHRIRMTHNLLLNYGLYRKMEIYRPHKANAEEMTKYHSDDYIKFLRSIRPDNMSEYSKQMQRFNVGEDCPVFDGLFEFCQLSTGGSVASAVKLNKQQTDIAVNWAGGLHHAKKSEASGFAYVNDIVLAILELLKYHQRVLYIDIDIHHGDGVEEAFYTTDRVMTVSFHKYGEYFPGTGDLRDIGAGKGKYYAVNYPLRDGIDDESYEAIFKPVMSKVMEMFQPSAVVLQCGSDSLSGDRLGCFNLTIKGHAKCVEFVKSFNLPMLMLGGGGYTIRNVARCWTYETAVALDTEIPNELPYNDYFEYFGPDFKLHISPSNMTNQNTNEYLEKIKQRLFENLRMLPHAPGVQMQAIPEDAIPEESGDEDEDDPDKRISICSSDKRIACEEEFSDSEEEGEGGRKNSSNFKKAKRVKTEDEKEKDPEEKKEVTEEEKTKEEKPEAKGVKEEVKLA

Sequence of HDAC1 R36A (Q13547 whole entry R36A): as the sequence (Q13547 whole entry C151A) above, with R36A, A151C counted along it
Sequence of HDAC1 Y24A (Q13547 whole entry Y24A): as the sequence (Q13547 whole entry C151A) above, with Y24A, A151C counted along it
Sequence of HDAC1 R34A (Q13547 whole entry R34A): as the sequence (Q13547 whole entry C151A) above, with R34A, A151C counted along it
Sequence of HDAC1 Y23A (Q13547 whole entry Y23A): as the sequence (Q13547 whole entry C151A) above, with Y23A, A151C counted along it
Sequence of HDAC1 F205Y (Q13547 whole entry F205Y): as the sequence (Q13547 whole entry C151A) above, with A151C, F205Y counted along it
Sequence of wild-type HDAC1 (Q13547 whole entry): as the sequence (Q13547 whole entry C151A) above, with A151C counted along it

- IC50 [1]: 7.2 ± 0.54 mM
- fold reduction in acetate inhibition compared to the wild type ([2]; HDAC1 Y24A vs wild type): roughly 3 fold
- IC50 ([2]; acetate inhibition, HDAC1 Y24A): 19 ± 1.1 mM
- fold reduction in acetate inhibition compared to the wild type ([4]; HDAC1 R34A vs wild type): roughly 3 fold
- IC50 ([4]; acetate inhibition, HDAC1 R34A): 21 ± 1.6 mM
- fold reduction in acetate inhibition compared to the wild type ([5]; HDAC1 R36A vs wild type): roughly 2 fold
- IC50 ([5]; acetate inhibition, HDAC1 R36A): 16 ± 1.3 mM
- fold reduction in acetate inhibition compared to the wild type ([6]; HDAC1 Y23A vs wild type): roughly 3 fold
- IC50 ([6]; acetate inhibition, HDAC1 Y23A): 21 ± 1.5 mM
- IC50 [8]: 8 ± 1.5 mM
- fold reduction in acetate inhibition compared to the wild type ([9]; HDAC1 C151A vs wild type): roughly 2 fold
- IC50 ([9]; acetate inhibition, HDAC1 C151A): 13 ± 1.1 mM
SMILES: CC(=O)[O-].[Na+] [acetate, sodium acetate]
- IC50 [3]: 2.5 mM
- fold reduction of acetate inhibition compared to wild type [7]: 160 fold
